This passage reports IC50 results from PMC11589582, “Structural mechanisms of human sodium-coupled high-affinity choline transporter CHT1” (Cell Discovery, 2024).

A word on the IC50: it is the concentration needed to halve the response being measured. Read a low IC50 as higher potency.

The assay has as its target T1, sodium-coupled high-affinity choline transporter CHT1 (Homo sapiens, UniProt Q9GZV3).
T1 construct: gene SLC5A7; Full-length human CHT1 (NP_068587.1) with a C-terminal Strep-tag
T1 sequence (Q9GZV3 1-580): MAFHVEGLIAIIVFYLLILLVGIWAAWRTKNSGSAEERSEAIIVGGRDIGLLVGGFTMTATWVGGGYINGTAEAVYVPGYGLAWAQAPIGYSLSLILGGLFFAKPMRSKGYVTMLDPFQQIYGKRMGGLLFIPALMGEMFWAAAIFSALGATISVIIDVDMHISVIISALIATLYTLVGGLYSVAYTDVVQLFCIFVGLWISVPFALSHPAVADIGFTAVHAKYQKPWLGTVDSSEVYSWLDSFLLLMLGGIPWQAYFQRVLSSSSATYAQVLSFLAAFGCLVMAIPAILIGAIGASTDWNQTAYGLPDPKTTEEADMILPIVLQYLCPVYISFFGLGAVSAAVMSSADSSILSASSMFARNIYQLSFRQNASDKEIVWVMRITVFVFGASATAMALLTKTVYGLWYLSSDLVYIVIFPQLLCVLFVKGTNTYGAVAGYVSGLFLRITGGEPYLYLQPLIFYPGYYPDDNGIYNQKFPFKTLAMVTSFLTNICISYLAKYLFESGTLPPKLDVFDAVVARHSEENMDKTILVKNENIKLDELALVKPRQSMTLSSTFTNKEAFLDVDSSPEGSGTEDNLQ
The assay can be described thus: cryo-EM structure at […] Å; [3H]-choline uptake inhibition in CHT1-expressing HEK293 cells. In kind it is cell-based.

On to `C[N+]1(C)CCOC(O)(c2ccc(-c3ccc(C4(O)C[N+](C)(C)CCO4)cc3)cc2)C1` (stereo not shown) [HC3, hemicholinium-3], for which the IC50 is 4.98 ± 1.04 nM.
